Key:
[1] = target: Replicase polyprotein 1ab (Severe acute respiratory syndrome-related coronavirus, UniProt P0C6X7); assay: Inhibition of GST-tagged SARS coronavirus 3C-like protease by FRET assay
[2] = target: Replicase polyprotein 1ab (Severe acute respiratory syndrome-related coronavirus) (UniProt P0C6X7); assay: Inhibition of GST-tagged SARS coronavirus 3C-like protease at 1 mM by FRET assay

For O=C1Nc2ccc(S(=O)(=O)N3CCN(c4ccc(F)cc4)CC3)cc2C1=O, the IC50 [1] was over 100 µM.
CC(=O)c1ccc2c(c1)C(=O)C(=O)N2 showed an inhibition [2] of 95.4%.
Molecule COc1cc(CN2CCN(S(=O)(=O)c3ccc4c(c3)C(=O)C(=O)N4)CC2)cc(OC)c1OC has an IC50 [1] of 32.1 µM.
In the case of CN1C(=O)C(=O)c2cc(S(=O)(=O)N3CCN(CCc4ccccc4)CC3)ccc21, the IC50 [1] is reported as 13.9 µM.
CN1CCN(S(=O)(=O)c2ccc3c(c2)C(=O)C(=O)N3Cc2ccc3ccccc3c2)CC1 was tested, and the IC50 [1] was 82.9 µM.
In the case of CC1CC(C)CN(S(=O)(=O)c2ccc3c(c2)C(=O)C(=O)N3C)C1 (stereo not drawn), the IC50 [1] is reported as 2.82 µM.
CN1C(=O)C(=O)c2cc(S(=O)(=O)N3CCOCC3)ccc21 gave an IC50 [1] of 9.91 µM.
In the case of CC1CC(C)CN(S(=O)(=O)c2ccc3c(c2)C(=O)C(=O)N3)C1 (stereo not drawn), the IC50 [1] is reported as 4.3 µM.
O=C1C(=O)N(Cc2ccc3ccccc3c2)c2ccc(S(=O)(=O)N3CCOCC3)cc21 gave an IC50 [1] of 39.9 µM.
O=C1Nc2ccc(S(=O)(=O)N3CCN(c4ccccn4)CC3)cc2C1=O gave an IC50 [1] of 51.3 µM.
Molecule CN1CCN(S(=O)(=O)c2ccc3c(c2)C(=O)C(=O)N3)CC1 has an IC50 [1] of 76.7 µM and an inhibition [2] of 98.6%.
CC1CCN(S(=O)(=O)c2ccc3c(c2)C(=O)C(=O)N3)CC1 showed an IC50 [1] of 1.18 µM.
COc1ccc2c(c1)C(=O)C(=O)N2 gave an inhibition [2] of 95.3%.
For O=C1Nc2cc3c(cc2C1=O)CCC3, the inhibition [2] was 79.4%.
With CC1CCN(S(=O)(=O)c2ccc3c(c2)C(=O)C(=O)N3C)CC1 the IC50 [1] was 1.04 µM.
Work on O=C1Nc2ccc(S(=O)(=O)N3CCN(c4cccc(C(F)(F)F)c4)CC3)cc2C1=O yielded an IC50 [1] of over 100 µM.
For O=C1Nc2ccc(C(=O)O)cc2C1=O, the inhibition [2] was 44.8%.
O=C1Nc2ccc(S(=O)(=O)N3CCN(Cc4cccc(Cl)c4)CC3)cc2C1=O showed an IC50 [1] of 31.7 µM.
In the case of CC1CCN(S(=O)(=O)c2ccc3c(c2)C(=O)C(=O)N3Cc2ccc3ccccc3c2)CC1, the IC50 [1] is reported as 17.8 µM.
O=C1Nc2ccc(S(=O)(=O)N3CCN(C(=O)c4ccco4)CC3)cc2C1=O gave an IC50 [1] of 10.1 µM.
In the case of O=C1Nc2cccc(Br)c2C1=O, the inhibition [2] is reported as 68.4%.
O=C1C(=O)N(Cc2ccccc2)c2ccc(S(=O)(=O)N3CCOCC3)cc21 gave an IC50 [1] of 13.9 µM.
For CC1CC(C)CN(S(=O)(=O)c2ccc3c(c2)C(=O)C(=O)N3Cc2ccccc2)C1 (stereo not drawn), the IC50 [1] was 4.7 µM.
Molecule CN1C(=O)C(=O)c2cc(S(=O)(=O)N3CCN(c4ccccn4)CC3)ccc21 has an IC50 [1] of 5.52 µM.
O=C1Nc2ccc(Cl)cc2C1=O was tested, and the inhibition [2] was 84.2%.
Molecule O=C1Nc2ccc([N+](=O)[O-])cc2C1=O has an inhibition [2] of 94%.
Molecule CN1CCN(S(=O)(=O)c2ccc3c(c2)C(=O)C(=O)N3C)CC1 has an IC50 [1] of 11.8 µM.
With O=C1Nc2ccc(S(=O)(=O)N3CCOCC3)cc2C1=O the IC50 [1] was 12.7 µM.
Molecule CC1CCCCN1S(=O)(=O)c1ccc2c(c1)C(=O)C(=O)N2 (stereo not drawn) has an IC50 [1] of 2.25 µM.
For O=C1Nc2ccc(F)cc2C1=O, the inhibition [2] was 82.5%.
For O=C1Nc2ccc(S(=O)(=O)N3CCCCC3)cc2C1=O, the IC50 [1] was 4.45 µM.
In the case of O=C1Nc2ccc(Br)cc2C1=O, the inhibition [2] is reported as 90.5%.
Molecule O=C1C(=O)N(Cc2ccccc2)c2ccc(S(=O)(=O)N3CCCCC3)cc21 has an IC50 [1] of 14 µM.
O=C1Nc2ccc(I)cc2C1=O gave an inhibition [2] of 86.7%.
In the case of CC1CCN(S(=O)(=O)c2ccc3c(c2)C(=O)C(=O)N3Cc2ccccc2)CC1, the IC50 [1] is reported as 1.69 µM.
CN1CCN(S(=O)(=O)c2ccc3c(c2)C(=O)C(=O)N3Cc2ccccc2)CC1 showed an IC50 [1] of 67.2 µM.
In the case of O=C1Nc2ccc(S(=O)(=O)N3CCN(CCc4ccccc4)CC3)cc2C1=O, the IC50 [1] is reported as 34.9 µM.

Reference: ChEMBL document CHEMBL3098093, “Synthesis, modification and docking studies of 5-sulfonyl isatin derivatives as SARS-CoV 3C-like protease inhibitors” (Bioorg Med Chem, 2014)
